In brackets after ≈: the same amount, converted by molar mass.
Experiments:
[1] = system: Pseudomonas aeruginosa PAO1-Xen41; experiment: EC50 of growth/kill rate concentration-effect curve
Experimental: (§1)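 Time-kill assays of bioluminescent P. aeruginosa PAO1-Xen41 (start ~5e6 CFU/mL) in 96-well plates at 37 °C, 150 rpm. Luminescence was read hourly for 20 h in cation-adjusted Mueller-Hinton broth, either non-conditioned (MH broth with or without supplements) or conditioned by one of 13 CF-associated species, then filter-sterilised and nutrient-replenished. Growth/kill rates came from log-linear regression of the exponential phase at 9-10 antibiotic concentrations, and Hill (Emax) models were fitted with drc for each replicate.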

[2] = system: Pseudomonas aeruginosa PAO1-Xen41; experiment: Hill coefficient of concentration-effect curve (unitless); higher = steeper concentration-effect curve
Experimental: as §1

[3] = system: Pseudomonas aeruginosa PAO1-Xen41; experiment: Emax, maximal drug effect on net growth rate (fitted lower asymptote) (per hour (slope of log luminescence)); higher = weaker maximal killing (less negative)
Experimental: as §1

NC[C@H]1O[C@H](O[C@H]2[C@H](O)[C@@H](O[C@H]3O[C@H](CO)[C@@H](O)[C@H](N)[C@H]3O)[C@H](N)C[C@@H]2N)[C@H](N)C[C@@H]1O [tobramycin]
Details | EC50, [1] [µg/mL] | Emax, [3] | Hill coefficient, [2]
medium (conditioned by secondary species or non-conditioned control): A. baumannii | 0.257 (≈ 0.55 µM) | -0.121 | 16.7
medium (conditioned by secondary species or non-conditioned control): A. fumigatus | 0.7033 (≈ 1.5 µM) | -0.188 | 4.28
medium (conditioned by secondary species or non-conditioned control): A. xylosoxidans | 0.2759 (≈ 0.59 µM) | -0.157 | 14.8
medium (conditioned by secondary species or non-conditioned control): B. cepacia | 0.144 (≈ 0.308 µM) | -0.131 | 10.6
medium (conditioned by secondary species or non-conditioned control): C. albicans | 0.565 (≈ 1.21 µM) | -0.214 | 3.52
medium (conditioned by secondary species or non-conditioned control): H. influenzae | 0.185 (≈ 0.397 µM) | -0.126 | 14.4
medium (conditioned by secondary species or non-conditioned control): M. abcessus | 0.135 (≈ 0.288 µM) | -0.095 | 4.76
medium (conditioned by secondary species or non-conditioned control): M. avium | 0.201 (≈ 0.429 µM) | -0.17 | 9.2
medium (conditioned by secondary species or non-conditioned control): M. catarrhalis | 0.145 (≈ 0.31 µM) | -0.134 | 9.95
medium (conditioned by secondary species or non-conditioned control): MH broth | 0.136 (≈ 0.29 µM) | -0.122 | 5.72
medium (conditioned by secondary species or non-conditioned control): MH broth + ADC | 0.197 | -0.172 | 11.3
medium (conditioned by secondary species or non-conditioned control): MH broth + LHB + NAD | 0.138 | -0.116 | 10.7
medium (conditioned by secondary species or non-conditioned control): MH broth + glucose | 0.393 | -0.21 | 3.39
medium (conditioned by secondary species or non-conditioned control): R. mannitolilytica | 0.0784 (≈ 0.168 µM) | -0.107 | 8.12
medium (conditioned by secondary species or non-conditioned control): S. aureus | 0.0695 (≈ 0.149 µM) | -0.121 | 10
medium (conditioned by secondary species or non-conditioned control): S. maltophilia | 0.137 (≈ 0.293 µM) | -0.197 | 6.76
medium (conditioned by secondary species or non-conditioned control): S. pneumoniae | 0.471 (≈ 1.01 µM) | -0.128 | 12.4

CCC(C)CCCC(=O)N[C@@H](CCN)C(=O)N[C@H](C(=O)N[C@@H](CCN)C(=O)N[C@H]1CCNC(=O)[C@H]([C@@H](C)O)NC(=O)[C@H](CCN)NC(=O)[C@H](CCN)NC(=O)[C@H](CC(C)C)NC(=O)[C@@H](CC(C)C)NC(=O)[C@H](CCN)NC1=O)[C@@H](C)O (some centres undefined) [colistin]
Details | EC50, [1] [µg/mL] | Emax, [3] | Hill coefficient, [2]
medium (conditioned by secondary species or non-conditioned control): A. baumannii | 3.78 (≈ 3.27 µM) | -0.97093 | 5.23
medium (conditioned by secondary species or non-conditioned control): A. fumigatus | 4 (≈ 3.47 µM) | -1.07 | 0.809
medium (conditioned by secondary species or non-conditioned control): A. xylosoxidans | 3.71 (≈ 3.21 µM) | -0.971 | 4.77
medium (conditioned by secondary species or non-conditioned control): B. cepacia | 2.64 (≈ 2.28 µM) | -1.015 | 1.13
medium (conditioned by secondary species or non-conditioned control): C. albicans | 1.65 (≈ 1.43 µM) | -0.9963 | 1.39
medium (conditioned by secondary species or non-conditioned control): H. influenzae | 0.634 (≈ 0.549 µM) | -0.1151 | 7.12
medium (conditioned by secondary species or non-conditioned control): M. abcessus | 1.56 (≈ 1.35 µM) | -0.976 | 2.24
medium (conditioned by secondary species or non-conditioned control): M. avium | 1.04 (≈ 0.899 µM) | -0.954 | 1.72
medium (conditioned by secondary species or non-conditioned control): M. catarrhalis | 0.325 (≈ 0.282 µM) | -0.139 | 14.6
medium (conditioned by secondary species or non-conditioned control): MH broth | 1.45 (≈ 1.26 µM) | -0.963 | 2.54
medium (conditioned by secondary species or non-conditioned control): MH broth + ADC | 0.607 | -0.901 | 11.8
medium (conditioned by secondary species or non-conditioned control): MH broth + LHB + NAD | 0.324 | -0.156 | 12.4
medium (conditioned by secondary species or non-conditioned control): MH broth + glucose | 1.22 | -0.9802 | 2.92
medium (conditioned by secondary species or non-conditioned control): R. mannitolilytica | 1.32 (≈ 1.14 µM) | -0.958 | 1.77
medium (conditioned by secondary species or non-conditioned control): S. aureus | 1.08 (≈ 0.939 µM) | -0.966 | 2.47
medium (conditioned by secondary species or non-conditioned control): S. maltophilia | 3.83 (≈ 3.31 µM) | -0.97063 | 7.36
medium (conditioned by secondary species or non-conditioned control): S. pneumoniae | 0.325 (≈ 0.281 µM) | -0.117 | 7.9

O=C(O)c1cn(C2CC2)c2cc(N3CCNCC3)c(F)cc2c1=O [ciprofloxacin]
Details | EC50, [1] [µg/mL] | Emax, [3] | Hill coefficient, [2]
medium (conditioned by secondary species or non-conditioned control): A. baumannii | 0.0737 (≈ 0.222 µM) | -0.126 | 4.99
medium (conditioned by secondary species or non-conditioned control): A. fumigatus | 0.08478 (≈ 0.256 µM) | -0.125 | 6.73
medium (conditioned by secondary species or non-conditioned control): A. xylosoxidans | 0.0394 (≈ 0.119 µM) | -0.0897 | 5.96
medium (conditioned by secondary species or non-conditioned control): B. cepacia | – | -0.0915 | 3.61
medium (conditioned by secondary species or non-conditioned control): C. albicans | 0.08689 (≈ 0.262 µM) | -0.0975 | 6.2
medium (conditioned by secondary species or non-conditioned control): H. influenzae | 0.0686 (≈ 0.207 µM) | -0.124 | 4.89
medium (conditioned by secondary species or non-conditioned control): M. abcessus | 0.046 (≈ 0.139 µM) | -0.124 | 4.82
medium (conditioned by secondary species or non-conditioned control): M. avium | 0.0646 (≈ 0.195 µM) | -0.0922 | 3.72
medium (conditioned by secondary species or non-conditioned control): M. catarrhalis | 0.0542 (≈ 0.164 µM) | -0.0659 | 1.71
medium (conditioned by secondary species or non-conditioned control): MH broth | 0.0844 (≈ 0.255 µM) | -0.125 | 6.8
medium (conditioned by secondary species or non-conditioned control): MH broth + ADC | 0.0577 | -0.11 | 3.02
medium (conditioned by secondary species or non-conditioned control): MH broth + LHB + NAD | 0.0388 | -0.106 | 4.99
medium (conditioned by secondary species or non-conditioned control): MH broth + glucose | 0.0437 | -0.101 | 5.64
medium (conditioned by secondary species or non-conditioned control): R. mannitolilytica | 0.0451 (≈ 0.136 µM) | -0.0966 | 4.94
medium (conditioned by secondary species or non-conditioned control): S. aureus | 0.0434 (≈ 0.131 µM) | -0.0957 | 5.13
medium (conditioned by secondary species or non-conditioned control): S. maltophilia | 0.0279 (≈ 0.0843 µM) | -0.0883 | 3.59
medium (conditioned by secondary species or non-conditioned control): S. pneumoniae | 0.0738 (≈ 0.223 µM) | -0.117 | 4.27

CN(C)c1ccc(O)c2c1C[C@H]1C[C@H]3[C@H](N(C)C)C(O)=C(C(N)=O)C(=O)[C@@]3(O)C(O)=C1C2=O [minocycline]
Details | EC50, [1] [µg/mL] | Emax, [3] | Hill coefficient, [2]
medium (conditioned by secondary species or non-conditioned control): A. baumannii | 41.5 (≈ 90.7 µM) | -0.0946 | 3.37
medium (conditioned by secondary species or non-conditioned control): A. fumigatus | 4.51 (≈ 9.87 µM) | -0.12 | 5.95
medium (conditioned by secondary species or non-conditioned control): A. xylosoxidans | 29.9 (≈ 65.4 µM) | -0.193 | 6.19
medium (conditioned by secondary species or non-conditioned control): B. cepacia | 65.8 (≈ 144 µM) | -0.464 | 1.13
medium (conditioned by secondary species or non-conditioned control): C. albicans | 7.19 (≈ 15.7 µM) | -0.223 | 5.63
medium (conditioned by secondary species or non-conditioned control): H. influenzae | 9.75 (≈ 21.3 µM) | -0.198 | 1.67
medium (conditioned by secondary species or non-conditioned control): M. abcessus | 81 (≈ 177 µM) | -0.72 | 0.784
medium (conditioned by secondary species or non-conditioned control): M. avium | 6.33 (≈ 13.8 µM) | -0.13 | 5.77
medium (conditioned by secondary species or non-conditioned control): M. catarrhalis | 21.1 (≈ 46.2 µM) | -0.0725 | 3.92
medium (conditioned by secondary species or non-conditioned control): MH broth | 18.7 (≈ 40.9 µM) | -0.41 | 1.16
medium (conditioned by secondary species or non-conditioned control): MH broth + ADC | 3.939 | -0.071 | 15
medium (conditioned by secondary species or non-conditioned control): MH broth + LHB + NAD | 8.7 | -0.184 | 1.74
medium (conditioned by secondary species or non-conditioned control): MH broth + glucose | 19.7 | -0.432 | 1.2
medium (conditioned by secondary species or non-conditioned control): R. mannitolilytica | 72.8 (≈ 159 µM) | -0.649 | 0.909
medium (conditioned by secondary species or non-conditioned control): S. aureus | 87.8 (≈ 192 µM) | -0.776 | 0.785
medium (conditioned by secondary species or non-conditioned control): S. maltophilia | 81 (≈ 177 µM) | -0.713 | 0.781
medium (conditioned by secondary species or non-conditioned control): S. pneumoniae | 4.82 (≈ 10.5 µM) | -0.0595 | 2.06

C[C@@H]1O[C@@H]1P(=O)(O)O [fosfomycin]
Details | EC50, [1] [µg/mL] | Emax, [3] | Hill coefficient, [2]
medium (conditioned by secondary species or non-conditioned control): A. baumannii | 149 (≈ 1080 µM) | -0.132 | 2.21
medium (conditioned by secondary species or non-conditioned control): A. fumigatus | 16.6 (≈ 120 µM) | -0.117 | 1.48
medium (conditioned by secondary species or non-conditioned control): A. xylosoxidans | 201 (≈ 1450 µM) | -0.189 | 2.09
medium (conditioned by secondary species or non-conditioned control): B. cepacia | 81.7 (≈ 592 µM) | -0.0776 | 3.68
medium (conditioned by secondary species or non-conditioned control): C. albicans | 10.6 (≈ 77 µM) | -0.134 | 1.72
medium (conditioned by secondary species or non-conditioned control): H. influenzae | 72.3 (≈ 524 µM) | -0.354 | 1.57
medium (conditioned by secondary species or non-conditioned control): M. abcessus | 43.8 (≈ 318 µM) | -0.177 | 2.3
medium (conditioned by secondary species or non-conditioned control): M. avium | 34.4 (≈ 249 µM) | -0.196 | 1.9
medium (conditioned by secondary species or non-conditioned control): M. catarrhalis | 66.6 (≈ 483 µM) | -0.126 | 2.47
medium (conditioned by secondary species or non-conditioned control): MH broth | 22.4 (≈ 163 µM) | -0.173 | 2.99
medium (conditioned by secondary species or non-conditioned control): MH broth + ADC | 23.6 | -0.194 | 2.25
medium (conditioned by secondary species or non-conditioned control): MH broth + LHB + NAD | 47 | -0.233 | 1.88
medium (conditioned by secondary species or non-conditioned control): MH broth + glucose | 17.7 | -0.136 | 1.47
medium (conditioned by secondary species or non-conditioned control): R. mannitolilytica | 65.4 (≈ 473 µM) | -0.111 | 3.11
medium (conditioned by secondary species or non-conditioned control): S. aureus | 47.35 (≈ 343 µM) | -0.122 | 3.29
medium (conditioned by secondary species or non-conditioned control): S. maltophilia | 81.9 (≈ 593 µM) | -0.102 | 2.83
medium (conditioned by secondary species or non-conditioned control): S. pneumoniae | 45.9 (≈ 332 µM) | -0.276 | 1.54

Source: the supplement of paper PMC11619387
